Assay results: patent US20070010402A1, “Novel herbicides, usage thereof, novel thienopyrimidine derivatives, intermediates of the same, and process for production thereof” (NIHON NOHYAKU CO., LTD.,, priority 2002, published 2007)

Key:
Assay in all cases: Field foliar treatment test (Test Example 1)
Format in all cases: in vivo
Details in all cases: foliar spray at 1.0- to 2.0-leaf stage, wettable powder, active ingredient 10 g/a, 21st day from the treatment
[1] = tested on: Brassica juncea
Method: (§1) Alluvial soil from a field was put in a resin-made vat having an area of 200 cm^2. After fertilization, the seeds of Echinochloa crus-galli, Brassica juncea, and Ipomoea purpurea were cast on the soil and uniformly covered with the soil. Then, cultivation was continued in a greenhouse, and when the weeds to be tested reached the 1.0- to 2.0-leaf stage, the wettable powder obtained in Formulation Example 1 was diluted with water and a predetermined amount thereof was sprayed uniformly to the weeds by means of a small-sized power pressure spray to give 10 g of the active ingredient per an are. Thereafter, cultivation was further continued in the greenhouse, and the herbicidal effect was examined on the 21st day from the treatment. The results obtained are shown in Table 7 (the compound numbers in Table 7 correspond to those in Table 1 to 6). The herbicidal effect was evaluated in terms of herbicidal rate obtained from the following equation: Herbicidal rate (%)=[1−(Weight of weeds above the ground in a treated plot)/(Weight of weeds above the ground in a non-treated plot)]×100 and was expressed by herbicidal index according to the following criteria. [table]

[2] = tested on: Echinochloa crus-galli
Method: as §1

[3] = tested on: Ipomoea purpurea
Method: as §1

Cc1cc2c(-c3ccccc3OC(F)(F)F)nc(Cl)nc2s1 [5-31]
Herbicidal effect Brassica juncea (herbicidal index) [1]: 5 (91 to 100)
Herbicidal effect Echinochloa crus-galli (herbicidal index) [2]: 4 (71 to 90)
Herbicidal effect Ipomoea purpurea (herbicidal index) [3]: 5 (91 to 100)

CCCOc1nc(-c2cccc(C(F)(F)F)c2)c2cc(C)sc2n1 [6-25]
Herbicidal effect Brassica juncea (herbicidal index) [1]: 5 (91 to 100)
Herbicidal effect Echinochloa crus-galli (herbicidal index) [2]: 4 (71 to 90)
Herbicidal effect Ipomoea purpurea (herbicidal index) [3]: 5 (91 to 100)

CCCOc1nc(-c2cccc(OC(F)(F)F)c2)c2cc(C)sc2n1 [6-35]
Herbicidal effect Brassica juncea (herbicidal index) [1]: 5 (91 to 100)
Herbicidal effect Echinochloa crus-galli (herbicidal index) [2]: 5 (91 to 100)
Herbicidal effect Ipomoea purpurea (herbicidal index) [3]: 5 (91 to 100)

CCCOc1nc(-c2cccc(SC(F)(F)F)c2)c2cc(C)sc2n1 [6-39]
Herbicidal effect Brassica juncea (herbicidal index) [1]: 4 (71 to 90)
Herbicidal effect Echinochloa crus-galli (herbicidal index) [2]: 5 (91 to 100)
Herbicidal effect Ipomoea purpurea (herbicidal index) [3]: 5 (91 to 100)

CCCOc1nc(-c2cccc(OC(F)F)c2)c2cc(C)sc2n1 [6-40]
Herbicidal effect Brassica juncea (herbicidal index) [1]: 5 (91 to 100)
Herbicidal effect Echinochloa crus-galli (herbicidal index) [2]: 4 (71 to 90)
Herbicidal effect Ipomoea purpurea (herbicidal index) [3]: 5 (91 to 100)

Cc1cc2c(-c3cccc(Br)c3)nc(OC3CCCC3)nc2s1 [6-61]
Herbicidal effect Brassica juncea (herbicidal index) [1]: 4 (71 to 90)
Herbicidal effect Echinochloa crus-galli (herbicidal index) [2]: 4 (71 to 90)
Herbicidal effect Ipomoea purpurea (herbicidal index) [3]: 4 (71 to 90)

Cc1cc2c(-c3cccc(C(F)(F)F)c3)nc(OC3CCCC3)nc2s1 [6-80]
Herbicidal effect Brassica juncea (herbicidal index) [1]: 5 (91 to 100)
Herbicidal effect Echinochloa crus-galli (herbicidal index) [2]: 5 (91 to 100)
Herbicidal effect Ipomoea purpurea (herbicidal index) [3]: 5 (91 to 100)

Cc1cc2c(-c3ccc(F)c(C(F)(F)F)c3)nc(OC3CCCC3)nc2s1 [6-83]
Herbicidal effect Brassica juncea (herbicidal index) [1]: 4 (71 to 90)
Herbicidal effect Echinochloa crus-galli (herbicidal index) [2]: 5 (91 to 100)
Herbicidal effect Ipomoea purpurea (herbicidal index) [3]: 5 (91 to 100)

Cc1cc2c(-c3cccc(OC(F)(F)F)c3)nc(OC3CCCC3)nc2s1 [6-85]
Herbicidal effect Brassica juncea (herbicidal index) [1]: 4 (71 to 90)
Herbicidal effect Echinochloa crus-galli (herbicidal index) [2]: 5 (91 to 100)
Herbicidal effect Ipomoea purpurea (herbicidal index) [3]: 5 (91 to 100)

C#CC(C)Oc1nc(-c2cccc(C(F)(F)F)c2)c2cc(C)sc2n1 (stereo not drawn) [6-90]
Herbicidal effect Brassica juncea (herbicidal index) [1]: 5 (91 to 100)
Herbicidal effect Echinochloa crus-galli (herbicidal index) [2]: 5 (91 to 100)
Herbicidal effect Ipomoea purpurea (herbicidal index) [3]: 5 (91 to 100)

C=CCCOc1nc(-c2cccc(C(F)(F)F)c2)c2cc(C)sc2n1 [6-92]
Herbicidal effect Brassica juncea (herbicidal index) [1]: 5 (91 to 100)
Herbicidal effect Echinochloa crus-galli (herbicidal index) [2]: 5 (91 to 100)
Herbicidal effect Ipomoea purpurea (herbicidal index) [3]: 4 (71 to 90)

Cc1cc2c(-c3cccc(C(F)(F)F)c3)nc(OCCF)nc2s1 [6-96]
Herbicidal effect Brassica juncea (herbicidal index) [1]: 5 (91 to 100)
Herbicidal effect Echinochloa crus-galli (herbicidal index) [2]: 4 (71 to 90)
Herbicidal effect Ipomoea purpurea (herbicidal index) [3]: 5 (91 to 100)

Cc1cc2c(-c3cccc(C(F)(F)F)c3)nc(OCC(F)(F)F)nc2s1 [6-97]
Herbicidal effect Brassica juncea (herbicidal index) [1]: 5 (91 to 100)
Herbicidal effect Echinochloa crus-galli (herbicidal index) [2]: 5 (91 to 100)
Herbicidal effect Ipomoea purpurea (herbicidal index) [3]: 5 (91 to 100)

Cc1cc2c(-c3cccc(C(F)(F)F)c3)nc(OCC(Cl)(Cl)Cl)nc2s1 [6-98]
Herbicidal effect Brassica juncea (herbicidal index) [1]: 4 (71 to 90)
Herbicidal effect Echinochloa crus-galli (herbicidal index) [2]: 5 (91 to 100)
Herbicidal effect Ipomoea purpurea (herbicidal index) [3]: 5 (91 to 100)

Cc1cc2c(-c3cccc(OC(F)(F)F)c3)nc(OCC(F)F)nc2s1 [6-109]
Herbicidal effect Brassica juncea (herbicidal index) [1]: 5 (91 to 100)
Herbicidal effect Echinochloa crus-galli (herbicidal index) [2]: 5 (91 to 100)
Herbicidal effect Ipomoea purpurea (herbicidal index) [3]: 4 (71 to 90)

Cc1cc2c(-c3cccc(OC(F)(F)F)c3)nc(OCC(F)(F)C(F)F)nc2s1 [6-112]
Herbicidal effect Brassica juncea (herbicidal index) [1]: 5 (91 to 100)
Herbicidal effect Echinochloa crus-galli (herbicidal index) [2]: 5 (91 to 100)
Herbicidal effect Ipomoea purpurea (herbicidal index) [3]: 5 (91 to 100)

Cc1cc2c(-c3cccc(SC(F)(F)F)c3)nc(OCC(F)(F)F)nc2s1 [6-115]
Herbicidal effect Brassica juncea (herbicidal index) [1]: 5 (91 to 100)
Herbicidal effect Echinochloa crus-galli (herbicidal index) [2]: 5 (91 to 100)
Herbicidal effect Ipomoea purpurea (herbicidal index) [3]: 5 (91 to 100)

Cc1cc2c(-c3cccc(OC(F)F)c3)nc(OCC(F)(F)C(F)F)nc2s1 [6-125]
Herbicidal effect Brassica juncea (herbicidal index) [1]: 5 (91 to 100)
Herbicidal effect Echinochloa crus-galli (herbicidal index) [2]: 5 (91 to 100)
Herbicidal effect Ipomoea purpurea (herbicidal index) [3]: 5 (91 to 100)

COCC(C)Oc1nc(-c2cccc(C(F)(F)F)c2)c2cc(C)sc2n1 (stereo not drawn) [6-142]
Herbicidal effect Brassica juncea (herbicidal index) [1]: 4 (71 to 90)
Herbicidal effect Echinochloa crus-galli (herbicidal index) [2]: 5 (91 to 100)
Herbicidal effect Ipomoea purpurea (herbicidal index) [3]: 5 (91 to 100)

Cc1cc2c(-c3cccc(C(F)(F)F)c3)nc(OC3CCOC3)nc2s1 (stereo not drawn) [6-184]
Herbicidal effect Brassica juncea (herbicidal index) [1]: 4 (71 to 90)
Herbicidal effect Echinochloa crus-galli (herbicidal index) [2]: 5 (91 to 100)
Herbicidal effect Ipomoea purpurea (herbicidal index) [3]: 5 (91 to 100)

Cc1cc2c(-c3cccc(C(F)(F)F)c3)nc(OCc3ccco3)nc2s1 [6-187]
Herbicidal effect Brassica juncea (herbicidal index) [1]: 5 (91 to 100)
Herbicidal effect Echinochloa crus-galli (herbicidal index) [2]: 4 (71 to 90)
Herbicidal effect Ipomoea purpurea (herbicidal index) [3]: 5 (91 to 100)

Cc1cc2c(-c3cccc(C(F)(F)F)c3)nc(-n3cccn3)nc2s1 [6-192]
Herbicidal effect Brassica juncea (herbicidal index) [1]: 4 (71 to 90)
Herbicidal effect Echinochloa crus-galli (herbicidal index) [2]: 4 (71 to 90)
Herbicidal effect Ipomoea purpurea (herbicidal index) [3]: 5 (91 to 100)

Cc1cc2c(-c3cccc(C(F)(F)F)c3)nc(-n3cncn3)nc2s1 [6-193]
Herbicidal effect Brassica juncea (herbicidal index) [1]: 4 (71 to 90)
Herbicidal effect Echinochloa crus-galli (herbicidal index) [2]: 4 (71 to 90)
Herbicidal effect Ipomoea purpurea (herbicidal index) [3]: 5 (91 to 100)

Cc1cc2c(-c3cccc(C(F)(F)F)c3)nc(-n3ccnc3C)nc2s1 [6-194]
Herbicidal effect Brassica juncea (herbicidal index) [1]: 5 (91 to 100)
Herbicidal effect Echinochloa crus-galli (herbicidal index) [2]: 4 (71 to 90)
Herbicidal effect Ipomoea purpurea (herbicidal index) [3]: 5 (91 to 100)

Cc1cc2c(Oc3cccc(OC(F)(F)F)c3)nc(-n3ccc(C(F)(F)F)n3)nc2s1 [6-202]
Herbicidal effect Brassica juncea (herbicidal index) [1]: 4 (71 to 90)
Herbicidal effect Echinochloa crus-galli (herbicidal index) [2]: 4 (71 to 90)
Herbicidal effect Ipomoea purpurea (herbicidal index) [3]: 5 (91 to 100)

Cc1cc2c(-c3ccc(F)c(C(F)(F)F)c3)nc(OCC(F)(F)F)nc2s1 [6-207]
Herbicidal effect Brassica juncea (herbicidal index) [1]: 5 (91 to 100)
Herbicidal effect Echinochloa crus-galli (herbicidal index) [2]: 5 (91 to 100)
Herbicidal effect Ipomoea purpurea (herbicidal index) [3]: 5 (91 to 100)

Cc1cccc(-c2nc(OC(C)C)nc3sc(C)cc23)c1 [6-215]
Herbicidal effect Brassica juncea (herbicidal index) [1]: 5 (91 to 100)
Herbicidal effect Echinochloa crus-galli (herbicidal index) [2]: 5 (91 to 100)
Herbicidal effect Ipomoea purpurea (herbicidal index) [3]: 5 (91 to 100)

Cc1cc2c(-c3ccccc3C)nc(OCC(F)(F)F)nc2s1 [6-217]
Herbicidal effect Brassica juncea (herbicidal index) [1]: 5 (91 to 100)
Herbicidal effect Echinochloa crus-galli (herbicidal index) [2]: 4 (71 to 90)
Herbicidal effect Ipomoea purpurea (herbicidal index) [3]: 5 (91 to 100)

Cc1cc2nc(OCC(F)(F)F)nc(-c3cccc(OC(F)(F)F)c3)c2s1 [6-235]
Herbicidal effect Brassica juncea (herbicidal index) [1]: 5 (91 to 100)
Herbicidal effect Echinochloa crus-galli (herbicidal index) [2]: 5 (91 to 100)
Herbicidal effect Ipomoea purpurea (herbicidal index) [3]: 5 (91 to 100)

C#CC(C)Oc1nc(-c2cccc(OC(F)(F)F)c2)c2sc(C)cc2n1 (stereo not drawn) [6-236]
Herbicidal effect Brassica juncea (herbicidal index) [1]: 5 (91 to 100)
Herbicidal effect Echinochloa crus-galli (herbicidal index) [2]: 5 (91 to 100)
Herbicidal effect Ipomoea purpurea (herbicidal index) [3]: 5 (91 to 100)
